In data set [1] the test system is HBV (HepG2.117 cell line, inducibly HBV producing). Description: Anti-HBV activity: intracellular HBV DNA by real-time PCR in HepG2.117 cells after 3 days of treatment. The class given is cell-based, hepatitis B virus. In short, it runs like this: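 First, HBV replication is induced in HepG2.117 cells by doxycycline absence. Next, serially diluted compound is added for 3 days. Finally, intracellular HBV DNA is quantified by HBV-specific real-time PCR.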

Another data set in a line: in vitro. The class given is cell-based. The conditions noted are these: human, HepG2 or HepG2.117 cells, mean value. In short, it runs like this:
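Luminescent ATP quantitation served as the viability endpoint following a 3- or 4-day incubation with test compounds.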

Setting [2] is: Hepatitis B virus, HepG2.117, 72 h, HepG2.117 cells, 3 days of treatment, intracellular HBV DNA by real-time PCR; mean value; read-out: EC50 (μM, mean value).
Where [3] appears, read: 3-days incubation (unmarked values), ATPlite.
Where [4] appears, read: Hepatitis B virus, HepG2.117, 72 h, HepG2.117 cells, intracellular HBV DNA by real-time PCR, 3 days of treatment, mean value; read-out: EC50 (μM, mean value).
Setting [5] is: ATPlite, 3-days incubation (not marked with *).

Like-named read-outs stand apart in the source and are kept apart here. A value given as a limit tells only on which side of the number the result lay.

Turning to `CNC(=O)c1ccc(-n2c(N[C@@H](C)c3ccncc3)nc3c(c2=O)C[C@@H](C)N(C(=O)c2ccc(Cl)c(Cl)c2)C3)cc1` (single isomer, unassigned) [Compound C375b], the EC50 (as a rule, the concentration needed to bring the measured effect to its halfway point) in data set [1] (setting [2]) was 0.62 µM. In “in vitro” (setting [3]), the CC50 (commonly the concentration that lowers cell viability or growth by half) at 3 days is more than 50 µM.

On to `CNC(=O)c1ccc(-n2c(NCc3cccc(-c4nnc[nH]4)c3)nc3c(c2=O)C[C@@H](C)N(C(=O)c2ccc(Cl)c(Cl)c2)C3)cc1` [Compound C597], for which the EC50 in data set [1] (setting [4]) amounted to 9.49 µM. This compound registered a CC50 at 3 days in the data set “in vitro” (setting [5]) of more than 50 µM.

For the compound `CC(C)NC(=O)c1ncc(-n2c(NC(C)C)nc3c(c2=O)C[C@@H](C)N(C(=O)c2ccc(Cl)c(C(F)(F)F)c2)C3)n1C` [Compound C703], the EC50 in data set [1] (setting [2]) is 0.09 µM. In addition, the half-maximal cytotoxic concentration (CC50) at 3 days in “in vitro” (3-days incubation (unmarked values), ATPlite viability) was more than 50 µM.

As for `CC(C)Nc1nc2c(c(=O)n1-c1ccc(S(C)(=O)=O)c(C(F)F)c1)C[C@@H](C)N(C(=O)c1ccc(Cl)c(Cl)c1)C2` [Compound C385], the concentration giving a half-maximal response (EC50) in data set [1] (setting [4]) was 0.86 µM. In the data set “in vitro” (setting [5]), this compound returned a CC50 at 3 days of more than 50 µM.

`CNC(=O)c1ccc(-n2c(NC(C)C)nc3c(c2=O)C[C@@H](C)N(C(=O)c2cc4c(Br)c(C)ccc4[nH]2)C3)cc1` [Compound C471]: the EC50 in data set [1] (setting [4]) came to 0.25 µM. The midpoint of cytotoxicity in the data set “in vitro” (setting [5]), the CC50 at 3 days, lay at 21.6 µM.

Take `CNC(=O)c1ccc(-n2c(NC(C)C)nc3c(c2=O)C[C@@H](C)N(C(=O)c2ccc(C)c(Br)c2)C3)cc1` [Compound C586]: in data set [1] (setting [4]), the EC50 is 0.21 µM. The compound further came in with a CC50 at 3 days in the data set “in vitro” (setting [5]) of more than 50 µM.

Take `COc1ccccc1CNc1nc2c(c(=O)n1-c1ccccc1OC)CCN(C(=O)c1ccc(Cl)c(Cl)c1)C2` [Compound C17, 7-(3,4-dichlorobenzoyl)-3-(2-methoxyphenyl)-2-{[(2-methoxyphenyl)methyl]amino}-5,6,7,8-tetrahydropyrido[3,4-d]pyrimidin-4(3H)-one]: in data set [1] (setting [2]), the EC50 was 0.97 µM. In the data set “in vitro” (4-days incubation (values marked with *), ATPlite), this compound displayed a CC50 at 4 days of 28.9 µM.

Take `CNC(=O)c1ccc(-n2c(NC(C)C)nc3c(c2=O)C[C@@H](C)N(C(=O)c2ccc(Cl)c(C(F)F)c2)C3)c(Cl)c1` (single isomer, unassigned) [Compound C685a]: the 50% effective concentration (EC50) in data set [1] (setting [4]) amounted to 0.03 µM. Also, the CC50 at 3 days in “in vitro” (setting [5]) was more than 50 µM.

As to `C[C@H](Nc1nc2c(c(=O)n1-c1ccc(-n3cccn3)cc1)C[C@@H](C)N(C(=O)c1ccc(Cl)c(Cl)c1)C2)c1ccc(OC(F)(F)F)cc1` (single isomer, unassigned) [Compound C463b], the EC50 in data set [1] (setting [4]) turned out to be 7.21 µM. For the same compound, the half-maximal cytotoxic concentration (CC50) at 3 days in “in vitro” (setting [5]) was more than 50 µM.

In the case of `CC(C)Nc1nc2c(c(=O)n1-c1ccc(S(C)(=O)=O)cc1)CCN(C(=O)c1[nH]c3ccccc3c1Cl)C2` [Compound C133, 7-(3-chloro-1H-indole-2-carbonyl)-3-[4-(methanesulfonyl)phenyl]-2-[(propan-2-yl)amino]-5,6,7,8-tetrahydropyrido[3,4-d]pyrimidin-4(3H)-one], the half-maximal effective concentration (EC50) in data set [1] (setting [2]) was 1.94 µM. The cytotoxic concentration (CC50) at 3 days in “in vitro” (setting [3]) was found to be 28.3 µM.

Consider `CC(C)Nc1nc2c(c(=O)n1-c1ccc(S(C)(=O)=O)cc1)CCN(C(=O)c1ccc3ncoc3c1)C2` [Compound C151, 7-(1,3-benzoxazole-6-carbonyl)-3-[4-(methanesulfonyl)phenyl]-2-[(propan-2-yl)amino]-5,6,7,8-tetrahydropyrido[3,4-d]pyrimidin-4(3H)-one], for which, in data set [1] (setting [2]), the EC50 was 10.7 µM. Also, the CC50 at 3 days in the data set “in vitro” (setting [3]) was more than 50 µM.

In the case of `CC(C)Nc1nc2c(c(=O)n1-c1ccc(C(N)=O)cc1)C[C@@H](C)N(C(=O)c1ccc(Cl)c(Cl)c1)C2` [Compound C195, 4-[(6R)-7-(3,4-dichlorobenzoyl)-6-methyl-4-oxo-2-[(propan-2-yl)amino]-5,6,7,8-tetrahydropyrido[3,4-d]pyrimidin-3(4H)-yl]benzamide], in data set [1] (setting [2]), the concentration giving a half-maximal response (EC50) turned out to be 0.16 µM. Also, in the data set “in vitro” (setting [3]), the CC50 at 3 days was more than 50 µM.

Take `CNC(=O)c1ccc(-n2c(N[C@H](C)c3ccc(C(F)(F)F)cc3)nc3c(c2=O)C[C@@H](C)N(C(=O)c2ccc(Cl)c(Cl)c2)C3)cc1` (single isomer, unassigned) [Compound C413a]: the EC50 in data set [1] (setting [4]) is 0.06 µM. Moreover, in the data set “in vitro” (setting [5]), the half-maximal cytotoxic concentration (CC50) at 3 days was found to be 9 µM.

Consider `CNC(=O)c1ccc(-n2c(NC3CCC34CCC4)nc3c(c2=O)C[C@@H](C)N(C(=O)c2ccc(Cl)c(Cl)c2)C3)cc1` (stereo partly drawn) [Compound C347, 4-[(6R)-7-(3,4-dichlorobenzoyl)-6-methyl-4-oxo-2-[(spiro[3.3]heptan-1-yl)amino]-5,6,7,8-tetrahydropyrido[3,4-d]pyrimidin-3(4H)-yl]-N-methylbenzamide], for which, in data set [1] (setting [2]), the EC50 stood at 0.27 µM. The compound further returned a 50% cytotoxic concentration (CC50) at 3 days in the data set “in vitro” (setting [3]) of 24.2 µM.

On to `CNC(=O)c1ccc(-n2c(N[C@@H](C)c3ccccc3OC(F)F)nc3c(c2=O)C[C@@H](C)N(C(=O)c2ccc(Cl)c(Cl)c2)C3)cc1` (single isomer, unassigned) [Compound C438b], for which the 50% effective concentration (EC50) in data set [1] (setting [4]) stood at 0.15 µM. The compound also showed a CC50 at 3 days in the data set “in vitro” (setting [5]) of 29.9 µM.

For the compound `CC(C)Nc1nc2c(c(=O)n1-c1ccc(S(C)(=O)=O)cc1)CCN(C(=O)c1nc3ccc(Cl)cc3[nH]1)C2` [Compound C163, 7-(6-chloro-1H-benzimidazole-2-carbonyl)-3-[4-(methanesulfonyl)phenyl]-2-[(propan-2-yl)amino]-5,6,7,8-tetrahydropyrido[3,4-d]pyrimidin-4(3H)-one], the concentration for a half-maximal effect (EC50) in data set [1] (setting [2]) was found to be 4.45 µM. In “in vitro” (setting [3]), the CC50 at 3 days is more than 50 µM.

For `Cc1ccncc1-n1c(NC(C)C)nc2c(c1=O)CCN(C(=O)c1ccc(Cl)c(Cl)c1)C2` [Compound C114, 7-(3,4-dichlorobenzoyl)-3-(4-methylpyridin-3-yl)-2-[(propan-2-yl)amino]-5,6,7,8-tetrahydropyrido[3,4-d]pyrimidin-4(3H)-one], the EC50 in data set [1] (setting [2]) came out at 1.78 µM. In “in vitro” (setting [3]), this compound registered a CC50 at 3 days of more than 50 µM.

Take `CNC(=O)c1ccc(-n2c(N[C@H](C)c3ccccc3OC)nc3c(c2=O)C[C@@H](C)N(C(=O)c2ccc(Cl)c(Cl)c2)C3)cc1` (single isomer, unassigned) [Compound C402a]: in data set [1] (setting [4]), the EC50 was found to be 0.32 µM. In “in vitro” (setting [5]), this compound had a cytotoxic concentration (CC50) at 3 days of 13.8 µM.

Consider `CNC(=O)c1ccc(-n2c(N[C@H](C)c3ccc4c(ccn4C)c3)nc3c(c2=O)C[C@@H](C)N(C(=O)c2ccc(Cl)c(Cl)c2)C3)cc1` (single isomer, unassigned) [Compound C450a], for which the EC50 in data set [1] (setting [4]) was 0.02 µM. The same compound displayed a half-maximal cytotoxic concentration (CC50) at 3 days in the data set “in vitro” (setting [5]) of more than 50 µM.

As for `CNC(=O)c1ccc(-n2c(N[C@@H](C)c3ccccc3Cl)nc3c(c2=O)C[C@@H](C)N(C(=O)c2ccc(Cl)c(Cl)c2)C3)cc1` [Compound C445], in data set [1] (setting [4]), the half-maximal effective concentration (EC50) came out at 0.28 µM. In “in vitro” (setting [5]), this compound had a cytotoxic concentration (CC50) at 3 days of 24.1 µM.

For `CNC(=O)c1ccc(-n2c(NC(C)C(C)(C)C)nc3c(c2=O)C[C@@H](C)N(C(=O)c2ccc(Cl)c(Cl)c2)C3)cc1` (stereo partly shown) [Compound C459], in data set [1] (setting [4]), the EC50 stood at 0.24 µM. In “in vitro” (setting [5]), this compound gave a CC50 at 3 days of 28.6 µM.

`CNC(=O)c1cc(-n2c(NC(C)C)nc3c(c2=O)C[C@@H](C)N(C(=O)c2ccc(Cl)c(Cl)c2)C3)n(C(C)C)n1` [Compound C424]: the EC50 in data set [1] (setting [4]) stood at 0.93 µM. Also, the CC50 at 3 days in the data set “in vitro” (setting [5]) was more than 50 µM.

For the compound `Cc1[nH]cnc1-c1ccc(-n2c(NC(C)C)nc3c(c2=O)C[C@@H](C)N(C(=O)c2ccc(Cl)c(Cl)c2)C3)cc1` [Compound C248, (6R)-7-(3,4-dichlorobenzoyl)-6-methyl-3-[4-(5-methyl-1H-imidazol-4-yl)phenyl]-2-[(propan-2-yl)amino]-5,6,7,8-tetrahydropyrido[3,4-d]pyrimidin-4(3H)-one], the half-maximal effective concentration (EC50) in data set [1] (setting [2]) turned out to be 0.13 µM. For the same compound, in the data set “in vitro” (setting [3]), the half-maximal cytotoxic concentration (CC50) at 3 days is 31.1 µM.

Regarding `CCC1Cc2c(nc(NC(C)C)n(-c3ccc(S(C)(=O)=O)cc3)c2=O)CN1C(=O)c1ccc(Cl)c(Cl)c1` (stereo not shown) [Compound C158, 7-(3,4-dichlorobenzoyl)-6-ethyl-3-[4-(methanesulfonyl)phenyl]-2-[(propan-2-yl)amino]-5,6,7,8-tetrahydropyrido[3,4-d]pyrimidin-4(3H)-one], in data set [1] (setting [2]), the half-maximal effective concentration (EC50) worked out at 1.14 µM. Besides, the half-maximal cytotoxic concentration (CC50) at 3 days in the data set “in vitro” (setting [3]) is more than 50 µM.

Take `CCOC(=O)c1ccc(-n2c(NC(CCO)C3CC3)nc3c(c2=O)C[C@@H](C)N(C(=O)c2ccc(Cl)c(Cl)c2)C3)cc1` (stereo partly drawn) [Compound C230, ethyl 4-[(6R)-2-[(1-cyclopropyl-3-hydroxypropyl)amino]-7-(3,4-dichlorobenzoyl)-6-methyl-4-oxo-5,6,7,8-tetrahydropyrido[3,4-d]pyrimidin-3(4H)-yl]benzoate]: in data set [1] (setting [2]), the half-maximal effective concentration (EC50) turned out to be 1.7 µM. For the same compound, the half-maximal cytotoxic concentration (CC50) at 3 days in “in vitro” (setting [3]) is more than 50 µM.

Turning to `CNC(=O)c1cccc(-n2c(NC(C)C)nc3c(c2=O)C[C@@H](C)N(C(=O)c2ccc(Cl)c(Cl)c2)C3)c1` [Compound C232, 3-[(6R)-7-(3,4-dichlorobenzoyl)-6-methyl-4-oxo-2-[(propan-2-yl)amino]-5,6,7,8-tetrahydropyrido[3,4-d]pyrimidin-3(4H)-yl]-N-methylbenzamide], in data set [1] (setting [2]), the EC50 is 0.15 µM. Also, in “in vitro” (setting [3]), the half-maximal cytotoxic concentration (CC50) at 3 days is more than 50 µM.

On to `CC(C)Nc1nc2c(c(=O)n1-c1ccc(S(C)(=O)=O)cc1)CCN(C(=O)c1ccn3cncc3c1)C2` [Compound C361], for which the EC50 in data set [1] (setting [2]) was more than 50 µM. The same compound yielded a CC50 at 3 days in “in vitro” (setting [3]) of more than 50 µM.

As to `CC(C)Nc1nc2c(c(=O)n1-c1ccc(S(C)(=O)=O)cc1)CCN(C(=O)c1ccc3scnc3c1)C2` [Compound C366], the EC50 in data set [1] (setting [2]) is more than 10 µM. This compound also registered a CC50 at 3 days in the data set “in vitro” (setting [3]) of more than 50 µM.

For `Cc1c[nH]c(-c2ccc(-n3c(NC(C)C)nc4c(c3=O)C[C@@H](C)N(C(=O)c3ccc(Cl)c(Cl)c3)C4)cc2)n1` [Compound C250, (6R)-7-(3,4-dichlorobenzoyl)-6-methyl-3-[4-(4-methyl-1H-imidazol-2-yl)phenyl]-2-[(propan-2-yl)amino]-5,6,7,8-tetrahydropyrido[3,4-d]pyrimidin-4(3H)-one], the EC50 in data set [1] (setting [2]) was determined as 0.07 µM. In the data set “in vitro” (setting [3]), this compound returned a CC50 at 3 days of 8.9 µM.
